According to ChEMBL document CHEMBL1140619:
Square brackets hold non-standard residues; d marks the D form. Peptide text beside a SMILES is read from it. * marks the point of attachment. Tyr(Nα,Nα-allyl2) = C=CCN(CC=C)[C@@H](Cc1ccc(O)cc1)C(=O)*; Aib = CC(C)(N)C(=O)O

Assays:
[1] = biological target: Delta-type opioid receptor (Rattus norvegicus) (UniProt P33533); assay: Displacement of [3H]naltrindole from rat delta opioid receptor expressed in C6 cells; assay type: cell-based
[2] = biological target: Delta-type opioid receptor (Rattus norvegicus) (UniProt P33533); assay: Agonist activity at rat delta opioid receptor expressed in C6 cells assessed as stimulation of [35S]GTP-gamma-S binding relative to BW373U86; assay type: functional, cell-based

Chain of Delta-type opioid receptor (Rattus norvegicus) (P33533 whole entry): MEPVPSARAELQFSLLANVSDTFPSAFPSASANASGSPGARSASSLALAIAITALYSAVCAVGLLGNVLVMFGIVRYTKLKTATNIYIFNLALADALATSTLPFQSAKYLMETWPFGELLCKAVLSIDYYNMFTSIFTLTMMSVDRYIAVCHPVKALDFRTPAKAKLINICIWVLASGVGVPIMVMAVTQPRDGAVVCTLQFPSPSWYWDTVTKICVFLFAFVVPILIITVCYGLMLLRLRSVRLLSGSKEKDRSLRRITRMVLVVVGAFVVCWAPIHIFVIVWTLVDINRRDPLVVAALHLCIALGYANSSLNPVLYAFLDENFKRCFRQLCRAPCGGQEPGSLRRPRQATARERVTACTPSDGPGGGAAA

| SMILES | Activity [1] [nM] | Activity [2] |
| --- | --- | --- |
| Oc1ccc2c3c1O[C@H]1c4oc5ccccc5c4C[C@@]4(O)[C@@H](C2)N(CC2CC2)CC[C@]314 | 0.037 |  |
| C=CCN(CC=C)[C@@H](Cc1ccc(O)cc1)C(=O)NC(C)(C)C(=O)NC(C)(C)C(=O)N[C@@H](Cc1ccccc1)C(=O)N[C@@H](CC(C)C)C(=O)O ({Tyr(Nα,Nα-allyl2)}-[Aib][Aib]FL-OH) | 37 | 0 |
| O=C1/C(=C/c2ccccc2)C[C@@]2(O)[C@H]3Cc4ccc(O)c5c4[C@@]2(CCN3CC2CC2)[C@H]1O5 | 0.079 |  |
| CC1(C)SSC(C)(C)C(NC(=O)[C@@H](N)Cc2ccc(O)cc2)C(=O)NCC(=O)N[C@@H](Cc2ccc(Cl)cc2)C(=O)NC1C(=O)O (stereo in doubt) | 135 | 0.8 |
| C=CCN1C[C@H](C)N([C@H](c2ccc(C(=O)N(CC)CC)cc2)c2cccc(O)c2)C[C@H]1C | 0.45 |  |
| Oc1ccc2c3c1O[C@H]1c4[nH]c5ccccc5c4C[C@@]4(O)[C@@H](C2)N(CC2CC2)CC[C@]314 |  | 0 |
| CC(C)C[C@H](NC(=O)[C@H](Cc1ccccc1)NC(=O)CNC(=O)[C@@H](CO)NC(=O)[C@@H](N)Cc1ccc(O)cc1)C(=O)N[C@H](C(=O)O)[C@@H](C)O | 93 | 0.9 |
| C=CCN1C[C@H](C)N([C@H](c2ccc(C(=O)N(CC)CC)cc2)c2cccc(OC)c2)C[C@H]1C | 60 | 1.02 |
| CN1CC[C@]23c4c5ccc(O)c4O[C@H]2C(=O)C2(Cc4ccccc4C2)C[C@@]3(O)[C@H]1C5 | 8.4 | 0.18 |
| CN1CC[C@]23c4c5ccc(O)c4O[C@H]2c2[nH]c4ccccc4c2C[C@@]3(O)[C@H]1C5 | 6.5 | 0.12 |
| CC(C)[C@H](NC(=O)[C@H](CC(=O)O)NC(=O)[C@H](Cc1ccccc1)NC(=O)[C@@H](C)NC(=O)[C@@H](N)Cc1ccc(O)cc1)C(=O)N[C@H](C(=O)NCC(N)=O)C(C)C | 81 | 0.59 |
